PMC7158045 (BMC Plant Biology, 2020)

Columns and labels:
Experiment in all cases: biochemical
ZmDRIK1-R187-P492 = target: T1, ZmDRIK1-R187-P492 (Zea mays, UniProt C0P4K9); settings: read-out: dTm B, DSF, Boltzmann fit, 0.1% DMSO
T1 construct: kinase domain, R187-P492
T1 sequence (C0P4K9 1-514): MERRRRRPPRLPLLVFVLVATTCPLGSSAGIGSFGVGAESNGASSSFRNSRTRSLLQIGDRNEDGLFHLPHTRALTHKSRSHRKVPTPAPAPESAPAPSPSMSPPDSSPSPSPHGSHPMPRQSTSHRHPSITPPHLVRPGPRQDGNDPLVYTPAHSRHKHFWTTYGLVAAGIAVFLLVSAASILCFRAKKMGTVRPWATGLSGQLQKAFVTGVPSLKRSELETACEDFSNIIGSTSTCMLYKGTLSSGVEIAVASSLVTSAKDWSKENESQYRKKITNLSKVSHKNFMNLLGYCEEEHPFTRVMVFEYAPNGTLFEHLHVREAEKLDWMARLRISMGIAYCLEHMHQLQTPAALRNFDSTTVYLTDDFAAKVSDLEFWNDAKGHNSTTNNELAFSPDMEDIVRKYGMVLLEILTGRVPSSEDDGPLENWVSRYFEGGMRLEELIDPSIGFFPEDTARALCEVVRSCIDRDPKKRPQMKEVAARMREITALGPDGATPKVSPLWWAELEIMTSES

ZmDRIK1-K217-P492 = target: T2, ZmDRIK1-K217-P492 (Zea mays, UniProt C0P4K9); settings: read-out: dTm B, sheet ZmDRIK1-K217-P492;; DSF, Boltzmann fit, 0.1% DMSO
T2 construct: kinase domain, K217-P492
T2 sequence (C0P4K9 1-514): T1 sequence (C0P4K9 1-514)

ZmDRIK1-K217-S514 = target: T3, ZmDRIK1-K217-S514 (Zea mays, UniProt C0P4K9); settings: read-out: dTm B, sheet ZmDRIK1-K217-S514;; DSF, Boltzmann fit, 0.1% DMSO
T3 construct: kinase domain, K217-S514
T3 sequence (C0P4K9 1-514): T1 sequence (C0P4K9 1-514)

[1] = target: T4, ZmDRIK1 (DROUGHT RESPONSIVE INACTIVE KINASE 1), kinase domain (Zea mays, UniProt C0P4K9); settings: read-out: dTm B, sheet ZmDRIK1-R187-S514;; DSF, Boltzmann fit, 0.1% DMSO
T4 construct: gene ZEAMMB73_Zm00001d028770; ZmDRIK1-KD R187-S514 (kinase domain)
T4 sequence (C0P4K9 187-514): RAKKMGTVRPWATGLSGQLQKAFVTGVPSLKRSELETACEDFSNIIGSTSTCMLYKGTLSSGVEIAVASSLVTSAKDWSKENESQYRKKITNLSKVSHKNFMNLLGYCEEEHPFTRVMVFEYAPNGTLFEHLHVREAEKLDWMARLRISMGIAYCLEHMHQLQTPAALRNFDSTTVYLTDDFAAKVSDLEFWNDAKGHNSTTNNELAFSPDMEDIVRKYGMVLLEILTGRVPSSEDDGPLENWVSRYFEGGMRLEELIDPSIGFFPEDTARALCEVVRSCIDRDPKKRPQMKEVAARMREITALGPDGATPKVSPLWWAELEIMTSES

Row | ΔTm at 10 µM (ZmDRIK1-R187-P492) | ΔTm at 10 µM (ZmDRIK1-K217-P492) | ΔTm at 10 µM (ZmDRIK1-K217-S514) | ΔTm at 10 µM [1] | Structure (SMILES)
1 | -0.457 °C | -0.987 °C | -0.556 °C | -1.16 °C | N#CC(C#N)=Cc1ccc(O)c(O)c1 [AG-18]
2 | -0.312 °C | -0.94 °C | -0.329 °C | -0.675 °C | COc1ccc2c(Oc3ccc(NC(=O)c4c(C)n(CC(C)(C)O)n(-c5ccccc5)c4=O)nc3)ccnc2c1 [AMG-458]
3 | -0.572 °C | -3.86 °C | -2.33 °C | -6.12 °C | Cc1csc(-c2nnc(Nc3ccc(Oc4ncccc4-c4ccnc(N)n4)cc3)c3ccccc23)c1 [AMG-900]
4 | 0.884 °C | 1.37 °C | 1.39 °C | 0.389 °C | O=C1NC(=O)/C(=C/c2ccc(-c3ccc(F)cc3O)o2)S1 [AS-252424]
5 | -0.284 °C | -0.999 °C | -0.526 °C | -0.905 °C | O=C1NC(=O)/C(=C/c2ccc3c(c2)OC(F)(F)O3)S1 [AS-604850]
6 | -5.11 °C | -1.48 °C | -1.18 °C | -7.98 °C | C=CC(=O)Nc1ccc2ncnc(Nc3ccc(OCc4cccc(F)c4)c(Cl)c3)c2c1 [AST-1306]
7 | 0.0148 °C | 0.0166 °C | -0.106 °C | -0.866 °C | O=C(NC1CCNCC1)c1n[nH]cc1NC(=O)c1c(Cl)cccc1Cl [AT7519]
8 | -0.25 °C | -0.759 °C | 0.339 °C | -0.971 °C | Clc1ccc(C2(c3ccc(-c4cn[nH]c4)cc3)CCNCC2)cc1 [AT7867]
9 | -0.23 °C | -0.742 °C | -0.536 °C | -0.914 °C | O=C(Nc1c[nH]nc1-c1nc2ccc(CN3CCOCC3)cc2[nH]1)NC1CC1 [AT9283]
10 | 1.32 °C | 0.368 °C | 0.698 °C | -0.365 °C | C=CC(=O)Nc1cccc(Nc2nc(Nc3ccc(OCCOC)cc3)ncc2F)c1 [AVL-292]
11 | -0.0341 °C | -0.913 °C | -0.493 °C | -0.953 °C | C[C@@H]1COCCN1c1cc(C2(S(C)(=O)=O)CC2)nc(-c2cccc3[nH]ccc23)n1 [AZ20]
12 | -0.506 °C | -0.787 °C | -0.298 °C | -1.22 °C | N#Cc1ccc2[nH]c(O)c(-c3ccc(CN4CCOCC4)cn3)c2c1 [AZD1080]
13 | -0.181 °C | -0.752 °C | -0.249 °C | -0.564 °C | N[C@@H]1CCCN(c2c(/C=C3\SC(=O)NC3=O)cccc2-c2ccccc2)C1 [AZD1208]
14 | -0.161 °C | -0.856 °C | -0.215 °C | -0.906 °C | Cc1cc(Nc2nc(N[C@@H](C)c3ncc(F)cn3)ncc2Cl)[nH]n1 [AZD1480]
15 | -0.208 °C | -0.984 °C | -0.171 °C | -0.732 °C | CNC(=O)c1cccc(-c2ccc3c(N4CCOC[C@@H]4C)nc(N4CCOC[C@@H]4C)nc3n2)c1 [AZD2014]
16 | 0.74 °C | -0.184 °C | 0.133 °C | -0.307 °C | COc1cc(N2CCC(N)CC2)ccc1Nc1ncc(Cl)c(-c2c[nH]c3ccccc23)n1 [AZD3463]
17 | 0.421 °C | 0.194 °C | 0.296 °C | 0.239 °C | COc1cc(CCc2cc(NC(=O)c3ccc(N4C[C@@H](C)N[C@@H](C)C4)cc3)n[nH]2)cc(OC)c1 [AZD4547]
18 | -0.504 °C | -1.06 °C | -0.652 °C | -0.693 °C | NC1(C(=O)N[C@@H](CCO)c2ccc(Cl)cc2)CCN(c2ncnc3[nH]ccc23)CC1 [AZD5363]
19 | -0.417 °C | -1.24 °C | -0.394 °C | -0.576 °C | Cc1ncc(-c2ccnc(Nc3ccc(S(C)(=O)=O)cc3)n2)n1C(C)C [AZD5438]
20 | -0.2 °C | -1.04 °C | -0.29 °C | -0.715 °C | Cc1cc([C@@H](C)Nc2ccccc2C(=O)O)c2nc(N3CCOCC3)cc(=O)n2c1 [AZD6482]
21 | -0.167 °C | -0.323 °C | -0.261 °C | -0.804 °C | NC(=O)Nc1cc(-c2cccc(F)c2)sc1C(=O)N[C@H]1CCCNC1 [AZD7762]
22 | -0.00437 °C | -0.668 °C | -0.119 °C | -0.773 °C | COc1ccc(-c2ccc3c(N4CCOC[C@@H]4C)nc(N4CCOC[C@@H]4C)nc3n2)cc1CO [AZD8055]
23 | -0.162 °C | -0.83 °C | -0.42 °C | -0.935 °C | Cc1cc(C(=O)NOCCO)c(Nc2ccc(I)cc2F)n(C)c1=O [AZD8330]
24 | -0.293 °C | -1.19 °C | -0.27 °C | -0.497 °C | C=CC(=O)Nc1cc(Nc2nccc(-c3cn(C)c4ccccc34)n2)c(OC)cc1N(C)CCN(C)C [AZD9291]

Continued, compound first:

Row | Structure (SMILES) | ΔTm at 10 µM (ZmDRIK1-R187-P492) | ΔTm at 10 µM (ZmDRIK1-K217-P492) | ΔTm at 10 µM (ZmDRIK1-K217-S514) | ΔTm at 10 µM [1]
25 | N#C/C(=C\c1ccc(O)c(O)c1)C(=O)NCc1ccccc1 [AG-490 (Tyrphostin B42)] | -0.394 °C | -0.722 °C | -0.507 °C | -1.15 °C
26 | CC(C)(C)c1cc(C=C(C#N)C#N)cc(Br)c1O [AG-1024] | -0.615 °C | -1.09 °C | -0.233 °C | -0.562 °C
27 | COc1cc2ncnc(Nc3cccc(Cl)c3)c2cc1OC [AG-1478 (Tyrphostin AG-1478)] | -0.424 °C | -0.243 °C | -0.388 °C | -0.676 °C
28 | COc1ccc(CNC(=O)Nc2ncc([N+](=O)[O-])s2)cc1 [AR-A014418] | -0.199 °C | -0.984 °C | -0.49 °C | -1.03 °C
29 | Cc1cc(Nc2nc(N[C@@H](C)c3ccc(F)cc3)c(C#N)cc2F)n[nH]1 [AZ 960] | -0.311 °C | -0.533 °C | -0.27 °C | -0.939 °C
30 | CNC(=O)CN1CCC(Oc2cc3c(Nc4cccc(Cl)c4F)ncnc3cc2OC)CC1 [AZD8931 (Sapitinib)] | -0.238 °C | -1.14 °C | -0.326 °C | -1.22 °C
31 | NC(=O)c1ncn([C@@H]2O[C@H](CO)[C@@H](O)[C@H]2O)c1N [Acadesine] | -0.0339 °C | -0.691 °C | -0.387 °C | -0.564 °C
32 | CN(C)C/C=C/C(=O)Nc1cc2c(Nc3ccc(F)c(Cl)c3)ncnc2cc1O[C@H]1CCOC1 [Afatinib (BIBW2992)] | -0.346 °C | -1.3 °C | -0.623 °C | -0.728 °C
33 | COc1cc(Nc2ncc3c(n2)-c2ccc(Cl)cc2C(c2c(F)cccc2OC)=NC3)ccc1C(=O)O [Alisertib (MLN8237)] | -0.494 °C | -1.1 °C | -0.528 °C | -1.37 °C
34 | N#CC1(c2ccc(NC(=O)c3cccnc3NCc3ccncc3)cc2)CCCC1 [Apatinib] | -0.28 °C | -0.944 °C | -0.311 °C | -0.808 °C
35 | C[C@H]1[C@H](C)CC[C@]2(C(=O)O)CC[C@]3(C)C(=CC[C@@H]4[C@@]5(C)C[C@@H](O)[C@H](O)[C@@](C)(CO)[C@@H]5CC[C@]43C)[C@H]12 [Asiatic Acid] | -0.41 °C | -1.33 °C | -0.368 °C | -0.753 °C
36 | CCN1CCN(C(=O)Cc2ccc(Nc3ncc(F)c(Nc4ccc(C(=O)Nc5ccccc5Cl)cc4)n3)cc2)CC1 [Aurora A Inhibitor I] | -0.457 °C | -1.33 °C | -0.286 °C | -0.616 °C
37 | CNC(=O)c1ccccc1Sc1ccc2c(/C=C/c3ccccn3)n[nH]c2c1 [Axitinib] | -0.367 °C | -1.24 °C | -0.335 °C | -0.702 °C
38 | Cc1ccc(S(=O)(=O)/C=C/C#N)cc1 [BAY 11-7082] | -1.15 °C | -2.48 °C | -0.963 °C | -1.51 °C
39 | CC(C)CCN1c2nc(Nc3cc(F)c(O)c(F)c3)ncc2N(C)C(=O)C1C (stereo not drawn) [BI-D1870] | -0.479 °C | -1.48 °C | -0.612 °C | -0.701 °C
